Earlier results as cited in patent publication US20050090549A1, “Intrathecal gabapentin for treatment of pain” (Medtronic, Inc., priority 2003, published 2005).

Conditions: in water and in both basic and acidic aqueous solutions

NCC1(CC(=O)O)CCCCC1 [1-(aminomethyl)cyclohexane acetic acid]
solubility: freely soluble
